For eleven compounds, EC50 results are on record in BindingDB's records for doi:10.7270/Q2B856KG (Vanderbilt Screening Center For Gpcrs, Ion Channels and …, 2010).

Each structure is given as a SMILES string.

Chain of Voltage-dependent T-type calcium channel subunit alpha-1H (O95180 whole entry): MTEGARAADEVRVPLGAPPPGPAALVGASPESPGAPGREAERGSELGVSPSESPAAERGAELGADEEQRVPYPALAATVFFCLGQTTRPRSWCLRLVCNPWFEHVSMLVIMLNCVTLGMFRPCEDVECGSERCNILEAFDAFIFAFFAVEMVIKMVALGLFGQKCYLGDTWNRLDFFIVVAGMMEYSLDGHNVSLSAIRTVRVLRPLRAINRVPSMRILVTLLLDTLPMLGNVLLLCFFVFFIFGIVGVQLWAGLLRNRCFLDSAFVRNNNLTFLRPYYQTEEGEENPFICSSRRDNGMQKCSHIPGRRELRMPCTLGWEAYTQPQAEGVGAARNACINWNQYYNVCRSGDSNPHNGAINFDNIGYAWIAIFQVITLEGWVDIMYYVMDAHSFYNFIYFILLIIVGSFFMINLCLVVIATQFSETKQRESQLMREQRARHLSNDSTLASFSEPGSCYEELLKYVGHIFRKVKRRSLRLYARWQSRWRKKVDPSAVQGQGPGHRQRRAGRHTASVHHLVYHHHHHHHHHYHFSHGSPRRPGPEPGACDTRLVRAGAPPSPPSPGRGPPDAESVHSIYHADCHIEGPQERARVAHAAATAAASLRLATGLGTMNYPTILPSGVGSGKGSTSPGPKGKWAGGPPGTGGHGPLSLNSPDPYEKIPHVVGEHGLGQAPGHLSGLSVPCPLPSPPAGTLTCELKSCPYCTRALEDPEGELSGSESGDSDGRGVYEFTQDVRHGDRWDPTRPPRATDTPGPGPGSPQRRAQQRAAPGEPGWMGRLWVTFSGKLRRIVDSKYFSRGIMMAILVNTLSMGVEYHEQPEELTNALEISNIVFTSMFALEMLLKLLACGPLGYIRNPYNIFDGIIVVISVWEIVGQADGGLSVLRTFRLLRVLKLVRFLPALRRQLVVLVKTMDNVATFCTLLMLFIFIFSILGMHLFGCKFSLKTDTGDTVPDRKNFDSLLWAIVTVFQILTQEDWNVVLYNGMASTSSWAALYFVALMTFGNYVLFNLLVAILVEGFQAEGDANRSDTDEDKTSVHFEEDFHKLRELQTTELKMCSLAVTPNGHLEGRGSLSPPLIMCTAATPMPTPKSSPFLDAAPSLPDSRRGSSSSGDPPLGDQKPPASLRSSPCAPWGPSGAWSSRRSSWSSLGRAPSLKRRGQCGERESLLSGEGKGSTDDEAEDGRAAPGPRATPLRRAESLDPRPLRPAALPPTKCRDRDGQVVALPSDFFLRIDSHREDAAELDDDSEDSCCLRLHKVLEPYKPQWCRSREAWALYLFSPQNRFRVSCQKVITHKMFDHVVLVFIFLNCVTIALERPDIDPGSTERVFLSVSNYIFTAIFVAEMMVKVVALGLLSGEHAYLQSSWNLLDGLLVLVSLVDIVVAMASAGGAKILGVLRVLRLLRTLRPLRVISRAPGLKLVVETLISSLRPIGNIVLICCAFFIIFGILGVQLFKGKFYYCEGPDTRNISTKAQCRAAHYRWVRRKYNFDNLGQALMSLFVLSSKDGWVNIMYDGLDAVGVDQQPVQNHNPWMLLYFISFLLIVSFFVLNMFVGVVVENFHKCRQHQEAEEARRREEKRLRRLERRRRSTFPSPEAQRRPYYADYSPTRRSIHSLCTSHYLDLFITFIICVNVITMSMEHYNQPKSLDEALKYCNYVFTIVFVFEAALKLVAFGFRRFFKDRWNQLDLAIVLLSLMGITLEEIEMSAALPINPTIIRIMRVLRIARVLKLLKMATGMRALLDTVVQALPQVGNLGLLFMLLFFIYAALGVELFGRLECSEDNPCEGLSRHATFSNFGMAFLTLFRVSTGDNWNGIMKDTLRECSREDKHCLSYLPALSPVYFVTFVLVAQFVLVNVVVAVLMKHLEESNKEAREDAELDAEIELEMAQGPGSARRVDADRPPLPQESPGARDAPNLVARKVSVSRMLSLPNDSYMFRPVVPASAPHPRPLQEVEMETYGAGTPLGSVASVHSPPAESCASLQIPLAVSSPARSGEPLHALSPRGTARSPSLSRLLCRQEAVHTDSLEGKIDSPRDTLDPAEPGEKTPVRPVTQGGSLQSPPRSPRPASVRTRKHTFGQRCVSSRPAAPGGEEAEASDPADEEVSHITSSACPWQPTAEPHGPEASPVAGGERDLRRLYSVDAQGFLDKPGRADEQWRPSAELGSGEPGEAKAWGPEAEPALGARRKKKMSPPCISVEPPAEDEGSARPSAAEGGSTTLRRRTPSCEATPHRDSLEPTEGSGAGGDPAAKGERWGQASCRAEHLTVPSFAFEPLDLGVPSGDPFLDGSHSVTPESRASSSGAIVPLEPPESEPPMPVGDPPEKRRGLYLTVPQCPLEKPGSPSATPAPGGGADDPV

The test addresses Voltage-dependent T-type calcium channel subunit alpha-1H (Homo sapiens, UniProt O95180). Nature of the test: PubChem AID 489005.
Turning to `CC(C)CC(C(=O)C(C#N)c1nc2ccccc2[nH]1)N1C(=O)c2ccccc2C1=O` (stereo unspecified) [MLS000109709], the EC50 is 14.8 µM.

For the compound `COc1cccc(N2CCN(c3cc(O)n(-c4ccc(Cl)c(Cl)c4)c3O)CC2)c1` [1-(3,4-dichlorophenyl)-3-[4-(3-methoxyphenyl)-1-piperazinyl]pyrrolidine-2,5-dione], the EC50 amounted to 6.84 µM.

As to `CC(CC(=O)c1ccncc1)=Nc1ccccc1O`, the EC50 is 3.26 µM.

On to `COc1ccc(C(C(=O)C(O)c2c[nH]c3ccccc23)N2CCN(c3ccccc3)CC2)cc1` (stereo unspecified) [MLS000053208], for which the EC50 was 8.16 µM.

On to `Cc1ccc(-c2csc(NC(=O)c3cccc(-n4c(O)ccc4O)c3)n2)o1` [SMR000018545], for which the EC50 worked out at 3.78 µM.

`CC1CCN(S(=O)(=O)c2ccc(N=NC(C#N)C#N)cc2)CC1` [SMR000162322]: the EC50 came to 1.52 µM.

Take `Oc1cc(SCCc2nc3ccccc3[nH]2)c(O)n1-c1ccc(Cl)cc1` [SMR000199589]: the EC50 turned out to be 613 µM.

On to `CCCCCCC1=Cc2c/c(=C3/NN=C(c4ccccc4)O3)c(=O)oc2=CC1=O` [MLS000068623], for which the EC50 was 3 µM.

Consider `O=NC1c2cc(S(=O)(=O)N3CCCCC3)ccc2-c2ccc(S(=O)(=O)N3CCCCC3)cc21` [2,7-Bis-(piperidine-1-sulfonyl)-fluoren-9-one oxime], for which the EC50 is 12.3 µM.

For the compound `O=NC(c1ccc(Cl)cc1Cl)c1ncc(C(F)(F)F)cc1Cl` (stereo unspecified) [MLS000540015], the EC50 amounted to 2.11 µM.

As to `CCN(CC)S(=O)(=O)c1ccc2c(c1)C(N=O)c1cc(S(=O)(=O)N(CC)CC)ccc1-2` [N2,N2,N7,N7-tetraethyl-9-hydroxyimino-fluorene-2,7-disulfonamide], the EC50 was determined as 1.6 µM.

One may read the EC50 as the concentration that produces a half-maximal response.
